Data published in patent US12419824B2, “Compounds useful for the treatment and/or care of the skin, hair, nails and/or mucous membranes” (Lubrizol Advanced Materials, Inc., priority 2019, dated 2025).

Test system: Muscle bind like protein 1 (MBNL1)
Assay: MBNL1 quantification in human skeletal muscle cells by TR-FRET (Examples 7, 19)
Assay type: cell-based
Conditions: hSkMc (Innoprot), 0.5 mg/ml, 48 hours, normalized to total protein
Method: MBNL1 induction by the peptides of the invention is evaluated by a Time resolved fluorescence resonance energy transfer (TR-FRET) assay. The aim of this study is to investigate the capacity of peptide candidates to increase MBNL1 in human skeletal muscle cells (hSkMc).
hSkMc (Innoprot) are seeded in 12-well plates at a density of 1.5×10^4 cells/well in Skeletal Muscle Cell Growth Medium (Promocell). After 72 hours incubation, medium is removed and replaced with Skeletal Muscle Cell Differentiation Medium (Promocell). 48 hours after beginning cell differentiation, fresh differentiation medium with 0.5 mg/ml of test items is added. Treatment is continued for 48 hours and non-treated cells are used as basal control. After 48 hours of treatment, cell medium is removed and added cell lysis buffer to wells. Immediately, plates are kept at −80° C. in order to improve protein extraction during the defrosting process. After 72 hours, cells are lysated by shaking the plates in an orbital rotor at room temperature for 45 minutes. Next, cell lysates are collected and assayed to quantify the level of MBNL1 protein and total protein concentration.
MBNL1 protein levels measurement is performed with Human MBNL1 Assay Kit (Cisbio) according to the manufacturer's protocol. Briefly, the kit is used to perform a TR-FRET for MBNL1 quantification. The protein is detected with the antibodies provided in the kit and quantified by a fluorescence measurement. The quantification is carried out by using a microplate reader (ClarioStar, BMG) set to 665 nm and 620 nm.
Total protein concentration of cell lysate is determined by using Pierce BCA Protein Assay Kit™ (Thermo Scientific) according to manufacturer's protocol. In brief, after adding Working Reagent to the samples and the standards, the samples are incubated. Afterwards, color change is measured with an absorbance microplate reader (Clariostar™, BMG) at 562 nm. The total protein amount is used to normalize the level of MBNL1 protein concentration obtained by the TR-FRET test in the samples.
Different peptides of the invention are tested as disclosed in Example 7 at 0.5 mg/mL.

Substance	MBNL1 levels compared to the basal control
Ac-Asp-Val-Tyr-Lys-NH2 (Ac-DVYK-NH2) [PEP1]	increase MBNL1 levels
H-Ala-Leu-Lys-Pro-Asn-Thr-NH2 (H-ALKPNT-NH2) [PEP2]	increase MBNL1 levels
